Like-named read-outs stand apart in the source and are kept apart here.
What was measured:
[1] = system: primary cultures of proximal tubular cells; conditions: 48 h, 11 nephrotoxics
[2] = system: tubular endothelium; conditions: dose of 1 g/kg/day; Sack 1985; cited from earlier work
[3] = system: CD3+ lymphocytes (human T cells)
Experimental: The sample was centrifuged at 120 g and was resuspended in 750 μL of RPMI medium (in the absence of FCS: fetal calf serum) to quantify the number of cells available using trypan blue. One hundred thousand cells per point were distributed.
Incubation was performed for 4 hours at 37° C. Cells were centrifuged for 6 minutes at 1200 rpm. The precipitate was resuspended in 100 μL of buffer (10 mmol/L HEPES, 150 mmol/L NaCl, 5 mmol/L KCl, 1 mmol/L Mg Cl2, 1.8 mmol/L CaCl2) and 5 μL of annexin-V. It was incubated in the dark for 10 minutes.
Intensity of green fluorescence of cells was quantified as displacement in the logarithmic scale from control (cells growing in 10% FCS) versus the number of cells analyzed. Cell debris was excluded from the analysis.

[4] = system: primary cultures of proximal tubular cells; conditions: cilastatin added to cultures with nephrotoxics, 24 hours
Experimental: Cells shed to the supernatant were collected by direct aspiration using an automatic pipet, and adherent cells were separated from the culture plate by trypsinization.
The PTCs thus obtained were separately fixed and permeabilized with 70% ethanol and stored at −20° C. After removing ethanol, cells were washed two times with PBS.
The count was performed in a FACScan cytometer (Beckton Dickinson) equipped with a simple argon ion laser. Windows were fixed based on the characteristics of FSC (size), SSC (complexity), FL2-H (height), FL2-A (area), and FL2-W (width). The latter two were used to rule out cell doublets. Analysis was performed using WinMDI 2.9 software.

[5] = system: renal degradation of imipenem; conditions: with cilastatin; cited from earlier work
[6] = system: humans; conditions: period immediately subsequent to transplant; cited from earlier work
[7] = system: primary cultures of proximal tubular cells; conditions: co-incubation with cilastatin; 24 hours aggression (12 hours for cisplatin), long-term survival 7 days
[8] = system: Wistar rats; experiment: Preliminary in vivo study of cilastatin nephroprotection against acute toxic renal failure caused by cisplatin; parameters: species or system rat; conditions: cisplatin 5 mg/kg plus cilastatin 75 or 150 mg/kg every 12 hours intraperitoneal
Experimental: Five animals, each subjected to a different treatment regimen, were preliminarily used.
At the time of killing, animals were weighed and anesthetized with ketamine (10 mg/kg) and diazepam (4 mg/kg). Once anesthetized, blood was drawn by cannulation of the abdominal aorta at the bifurcation level. This blood was kept for 30 minutes at 37° C. and subsequently for 1 hour at 4° C., after which it was centrifuged at 2000 rpm for 15 minutes at 4° C. This allowed for separation of blood serum, which was stored at −80° C. until use.

[9] = Source text: No data have been reported for humans. […] The resulting plot is shown in FIG. 14 (diamonds: rabbit data; triangles: rat data; blank squares: data from pig experiments; filled squares including a white point: data from the summary of product characteristics for humans).
[10] = system: primary cultures of proximal tubular cells; experiment: Mitochondrial activity using MTT reduction; type: cell-based, pig; conditions: presence of cilastatin with nephrotoxics
Experimental: Mitochondrial functionality of PTCs was measured by metabolic reduction of 3-(4,5-dimethylthiazole-2-yl)-2,5-diphenyltetrazole bromide (MTT, supplied by Calbiochem), performed by the mitochondrial enzyme succinate dehydrogenase, yielding a blue-colored compound (formazan). […] MTT was subsequently added to each well at a final concentration of 0.5 mg/mL and incubated for 3 hours at 37° C. in the dark. Once this incubation was completed, 100 μL of lysis buffer (20% SDS in 50% N,N-dimethylformamide, pH 4.7) were added, and the plate was incubated overnight at 37° C. in the dark. Absorbance was measured at 595 nm on the following day.
Percent viability was calculated as follows:
Real time MTT reduction was measured in semiconfluent proximal cells seeded in 24-well plates (16 mm in diameter) in which culture medium was replaced by MTT at 0.5 mg/mL of final concentration in PBS. This reduction was determined by measuring absorbance at 595 nm with an Olympus IX70 inverted fluorescence microscope coupled to a photomultiplier controlled from a SLM Aminco 2000 fluorimeter. […] In this test, as in the previous ones, vancomycin was directly added to the plate during measurement of absorbance. […]

[11] = target: DHP-I (Homo sapiens, UniProt P16444); conditions: Koller 1985, Campbell 1988; cited from earlier work
[12] = system: primary cultures of proximal tubular cells; conditions: 24 hours, with cilastatin; vancomycin, cyclosporin, tacrolimus, acetaminophen, cisplatin, gentamicin
Experimental: Cells were subsequently detached, and the final volume obtained was recorded. Cell lysate was subjected to a thermal shock, for which it was first heated at 100° C. for 5 min and then placed on ice. Each sample was subjected to sudden decompression. Samples were centrifuged at 12000 rpm for 5 min, and supernatant was collected.
For this purpose, PTCs were incubated with the different nephrotoxics under study, and the cumulative intracellular concentration of toxics in PTCs was quantified, in accordance with the procedure described at the start of the Examples.

[13] = system: cultures of cells of the proximal tubular epithelium; experiment: Scanning electron microscopy of cell morphology; conditions: 11 days; cyclosporin A 1 μg/mL without or with cilastatin 200 μg/mL
[14] = system: Wistar rats; experiment: Extended in vivo study of cilastatin nephroprotection against acute toxic renal failure caused by cisplatin
Source text: A total of 28 animals were used, which were randomized into 4 groups with a sample size n=6-8 animals per group.
Throughout the period, animals were given free access to both water and feed (standard diet) in a controlled light, temperature, and humidity environment. One day before killing, animals were introduced into metabolic cages with free access to feed and water ad libitum to collect 24-hour urine, in order to quantify urine output and protein concentration.
At the time of killing, animals (previously weighed) were anesthetized in the experimental operating room with ketamine (10 mg/kg) and diazepam (4 mg/kg) and were drawn blood by cannulation of the abdominal aorta at the bifurcation level. Blood was first incubated for 30 minutes at 37° C., and then for one hour at 4° C. Subsequent centrifugation at 2000 rpm for 15 minutes at 4° C. allowed for obtaining blood serum, which was frozen at −80° C. until use. […] Kidneys were subsequently removed, decapsulated, and kept in cold saline during their handling to minimize tissue degradation. Kidneys (right and left) were weighed and were subsequently handled similarly. […] The rest of the right kidneys, as well as left kidneys, were separated into cortex and medulla, and both samples were frozen in liquid nitrogen and stored at −80° C. until use.
Hemodynamic variables and serum and urine kidney function parameters (FIG. 14) were measured using a Dimension RxL autoanalyzer from Dade-Behring according to manufacturer instructions.
This time, urine samples were taken before killing, as indicated in the section describing the procedure.

[15] = system: primary cultures of proximal tubular cells (PTCs); experiment: Cell growth dynamics in primary culture of proximal tubular cells
[16] = cited from earlier work; for nature (neutral, anionic, apolar) at physiological pH: 7 or close to 7
[17] = system: cells of pig proximal tubular epithelium in primary culture
[18] = system: rabbits; conditions: rabbit, in vivo; cited from earlier work

DHP-I, sequence (P16444 17-385): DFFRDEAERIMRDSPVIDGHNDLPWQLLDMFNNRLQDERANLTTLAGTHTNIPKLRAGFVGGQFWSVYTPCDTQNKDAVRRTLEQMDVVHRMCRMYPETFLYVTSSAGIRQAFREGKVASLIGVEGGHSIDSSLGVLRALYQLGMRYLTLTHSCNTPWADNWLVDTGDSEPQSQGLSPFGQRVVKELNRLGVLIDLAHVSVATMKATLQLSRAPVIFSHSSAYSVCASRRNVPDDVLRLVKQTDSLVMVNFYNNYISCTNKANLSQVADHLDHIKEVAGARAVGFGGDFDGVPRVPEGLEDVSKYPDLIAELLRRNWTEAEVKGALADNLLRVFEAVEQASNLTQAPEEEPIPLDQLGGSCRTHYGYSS

CC1(C)C[C@@H]1C(=O)N/C(=C\CCCCSC[C@H](N)C(=O)O)C(=O)[O-].[Na+] (relative stereo) [cilastatin, monosodium salt of [R—[R*,S*—(Z)]]-7-[(2-amino-2-carboxyethyl)thio]-2-[[(2,2-dimetylcyclopropyl)carbonyl]amino]-2-heptenoic acid]
induction of apoptosis (nucleosomes) on co-incubation of nephrotoxics plus cilastatin [1]: induction of apoptosis ceases or is significantly reduced
sign of renal toxicity [2]: could cause sloughing of tubular endothelium
protective effect on cyclosporin A induced T cell death ([3]; cilastatin 200 μg/mL): absence of a protective effect
number of dead cells (sloughed to supernatant, anoikis) [4]: reduced in all cases the number of dead cells
urinary excretion rate of imipenem [5]: up to 70 % of the initial imipenem dose administered
nephrotoxicity induced by CsA [6]: may effectively counteract
cell growth / colony-forming units after nephrotoxic aggression (crystal violet) [7]: totally or partially restores cell growth
weight loss or changes in plasma creatinine [8]: no significant weight loss or changes in plasma creatinine
plasma level up to which the dose/plasma level relationship is linear ([9]; all species): around 800 mg/L
minimum effective dose ([9]; estimated): 10 mg/kg body weight
estimated minimum nephroprotective dose in humans ([9]; mean value for a human adult): 750 mg/day
restoration of mitochondrial electronic transfer capacity [10]: totally or partially restores
conversion of leukotriene D4 to leukotriene E4 [11]: strongly inhibited
intracellular accumulation of nephrotoxics [12]: interferes with intracellular administration of all nephrotoxics tested
cell morphology by scanning electron microscopy [13]: these changes do not usually occur
increase of mean weight ([14]; cilastatin 75 mg/kg every 12 hours without cisplatin): approximately 14 grams
proteinuria and urinary osmolality ([14]; cisplatin 5 mg/kg, cilastatin 75 mg/kg every 12 hours intraperitoneal): completely reversed the values to normal levels
FINAL WEIGHT ([14]; end of the extended study (5 days), mean ± standard error): 273 ± 7
effect of co-incubation with cilastatin on the effect of nephrotoxics on cell growth ([15]; cilastatin 200 μg/mL with cyclosporin A or tacrolimus): partially prevents
effect upon growth dynamics, cell confluence, or monolayer morphology ([15]; increasing cilastatin doses for 14 days, up to almost 10 times plasma concentrations reached in vivo): No significant effect
day of culture from which cell growth recovers with cilastatin ([15]; with cyclosporin): ≥ 11 days
time from which cell growth recovers with cilastatin ([15]; with tacrolimus (FK-506), decrease from day 7): from the same time

CC(=O)Nc1ccc(O)cc1 [Acetaminophen, N-(4-hydroxyphenyl)ethanamide]
SOLUBILITY IN WATER ([16]; in words): moderately soluble in
SOLUBILITY IN ORGANIC MEDIA ([16]; in words, in ethanol and acetone): soluble in ethanol and acetone
SOLUBILITY IN ORGANIC MEDIA ([16]; in words, in serum): insoluble in serum
nature (neutral, anionic, apolar) at physiological pH [16]: neutral

C[C@@H]1[C@H](O)[C@@H](C)/C=C/C=C/C=C/C=C/C=C/C=C/C=C/[C@H](O[C@@H]2O[C@H](C)[C@@H](O)[C@H](N)[C@@H]2O)C[C@@H]2O[C@](O)(C[C@@H](O)C[C@@H](O)[C@H](O)CC[C@@H](O)C[C@@H](O)CC(=O)O[C@H]1C)C[C@H](O)[C@H]2C(=O)O [Amphotericin B]
SOLUBILITY IN ORGANIC MEDIA ([16]; DMF + HCl): DMF + HCl (60-80 mg/mL)
SOLUBILITY IN ORGANIC MEDIA ([16]; DMF): soluble in DMF (2-4 mg/mL),
SOLUBILITY IN ORGANIC MEDIA ([16]; DMSO): DMSO (30-40 mg/mL)
nature (neutral, anionic, apolar) at physiological pH [16]: anionic
SOLUBILITY IN WATER ([16]; water at pH 2 or pH 11): 11 (0.1 mg/mL)

ClC(Cl)Cl [Chloroform, CHCl3]
nature (neutral, anionic, apolar) at physiological pH [16]: apolar

N.N.[Cl][Pt][Cl] [Cisplatin, cis-diaminodychloroplatin II]
nature (neutral, anionic, apolar) at physiological pH [16]: neutral

O=C(O)P(=O)(O)O [Foscarnet, phosphonoformic acid]
SOLUBILITY IN ORGANIC MEDIA ([16]; in words): insoluble
SOLUBILITY IN WATER ([16]; in words): soluble in water
nature (neutral, anionic, apolar) at physiological pH [16]: anionic

C[C@H](O)C(=O)Nc1c(I)c(C(=O)NC(CO)CO)c(I)c(C(=O)NC(CO)CO)c1I [Iopamidol]
SOLUBILITY IN ORGANIC MEDIA ([16]; in words): soluble in methanol insoluble
SOLUBILITY IN WATER ([16]; in words): soluble in water
nature (neutral, anionic, apolar) at physiological pH [16]: anionic

OC[C@@H](O)[C@@H](O)[C@H](O)[C@H](O)CO [Mannitol]
SOLUBILITY IN WATER [16]: (1 g/5.5 mL)
SOLUBILITY IN WATER ([16]; in words): soluble in water
nature (neutral, anionic, apolar) at physiological pH [16]: anionic

C=CC[C@@H]1/C=C(\C)C[C@H](C)C[C@H](OC)[C@H]2O[C@@](O)(C(=O)C(=O)N3CCCC[C@H]3C(=O)O[C@H](/C(C)=C/[C@@H]3CC[C@@H](O)[C@H](OC)C3)[C@H](C)[C@@H](O)CC1=O)[C@H](C)C[C@@H]2OC.O [Tacrolimus]
SOLUBILITY IN ORGANIC MEDIA ([16]; in words): high
SOLUBILITY IN WATER ([16]; in words): insoluble
nature (neutral, anionic, apolar) at physiological pH [16]: apolar
cell growth in the presence of the nephrotoxic ([15]; from the time of seeding, cyclosporin A 1 or 10 μg/mL, tacrolimus 50 ng/mL): dose-dependently reduced
day of culture from which cell growth is significantly decreased compared to control ([15]; post hoc analysis, cyclosporin 1 μg/mL and 10 μg/mL, tacrolimus (FK-506)): ≥ 7 days

CN[C@H](CC(C)C)C(=O)NC1C(=O)N[C@@H](CC(N)=O)C(=O)N[C@H]2C(=O)N[C@H]3C(=O)N[C@H](C(=O)N[C@@H](C(=O)O)c4cc(O)cc(O)c4-c4cc3ccc4O)[C@H](O)c3ccc(c(Cl)c3)Oc3cc2cc(c3OC2O[C@@H](CO)[C@@H](O)[C@H](O)[C@@H]2O[C@@H]2C[C@](C)(N)[C@H](O)[C@@H](C)O2)Oc2ccc(cc2Cl)[C@H]1O (stereo partly shown) [Vancomycin]
SOLUBILITY IN WATER ([16]; in words): water-soluble
SOLUBILITY IN WATER ([16]; in words, listed as VANCOMYCIN): high

CCCCC[C@@H](O)[C@H]1C(=O)O[C@H](C)[C@@H](O)/C=C/C=C/C=C/C=C/C=C(\C)[C@@H](O)C[C@H](O)C[C@H](O)C[C@H](O)C[C@H](O)C[C@H](O)C[C@@H]1O [filipin]
cell death [17]: causes cell death in a short time
internalization of fluorescent toxin B labeled caveolae from cell membrane to Golgi apparatus ([17]; […], cilastatin 200 μg/mL or filipin 50 μg/mL, pre-incubated 20 minutes): prevents their internalization

C[C@@H](O)[C@H]1C(=O)N2C(C(=O)O)=C(SCCN=CN)C[C@H]12 [imipenem]
tubular toxicity [18]: may cause tubular toxicity

Cyclosporin A
percent cell death of human T cells ([3]; cyclosporin A at different doses): dose-response effect of the lethal effect
cell morphology by scanning electron microscopy [13]: causes cytosolic condensation, cell rupture, and monolayer disruption

Gentamicin
nature (neutral, anionic, apolar) at physiological pH [16]: neutral

— patent US9522128B2 (FUNDACION PARA LA INVESTIGACION BIOMEDICA DEL HOSPITAL …, priority 2008, dated 2016)
